The values that follow come from the supplement of paper PMC11208160.

This series can be described thus: recombinant barcode read abundance after kanamycin selection (control-corrected) (log10(CPM+1)); higher = more efficient recombination; sequences stand for … in AGTGCAGAGAAAATCGGCCAGTTTTCTCTGCCTGCAGTCCGCATGCCGT…ATTTATGCAGCGGACTGCCTTTCTCCCAAAGTGATAAACCGGACAGTATCATGGACCGGTTTTCCCGGTAATCCGTATTTGCAAGGTTGGTTTCACT; site = the 11-nt target. How it is done: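 Same pooled E. coli target screen (IS621 bridge recombinase, kanamycin selection, control-corrected CPM, mean of 2 biological replicates). Here the two core-binding nucleotides of the LTG and RTG of the bridge RNA target-binding loop are mutated. Target and donor CT cores are held constant, and the other 9 guide positions match the target. The target is read from the library oligo sequence. Molecule = full bridge RNA written as DNA: nt 1-80 from the library oligo, rest WT scaffold.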
Regarding “AGGCCTCCTTGGGTTCTAACCTGTTGCCTCC [AGGCCTCCTAG_LTGcore_CT_RTGcore_GG] (site AGGCCTCCTAG) (LTG core: CT, RTG core: GG)”, the “recombinant barcode read abundance (log10)” value is 0.102.
For the sequence “AGGCCTCCTTGGGTTCTAACCTGTTGCCTGA [AGGCCTCCTAG_LTGcore_CT_RTGcore_TC] (site AGGCCTCCTAG) (LTG core: CT, RTG core: TC)”, the “recombinant barcode read abundance (log10)” value amounted to 0.578.
For “AGGCCTCCTTGGGTTCTAACCTGTTGCCTGT [AGGCCTCCTAG_LTGcore_CT_RTGcore_AC] (site AGGCCTCCTAG) (LTG core: CT, RTG core: AC)”, the “recombinant barcode read abundance (log10)” value is 0.0115.
Take “AGGCCTCGATGGGTTCTAACCTGTTGCCTTC [AGGCCTCCTAG_LTGcore_GA_RTGcore_GA] (site AGGCCTCCTAG) (LTG core: GA, RTG core: GA)”: the “recombinant barcode read abundance (log10)” value came out at 0.206.
As for “AGGCCTCGTTGGGTTCTAACCTGTTGCCTAC [AGGCCTCCTAG_LTGcore_GT_RTGcore_GT] (site AGGCCTCCTAG) (LTG core: GT, RTG core: GT)”, the “recombinant barcode read abundance (log10)” value amounted to 0.0637.
On to “AGGCGGGAATGGGTTCTAACCTGTTGCGGAG [AGGCGGGCTCC_LTGcore_AA_RTGcore_CT] (site AGGCGGGCTCC) (LTG core: AA, RTG core: CT)”, for which the “recombinant barcode read abundance (log10)” value stood at 0.668.
With “AGGCGGGAGTGGGTTCTAACCTGTTGCGGAG [AGGCGGGCTCC_LTGcore_AG_RTGcore_CT] (site AGGCGGGCTCC) (LTG core: AG, RTG core: CT)”, the “recombinant barcode read abundance (log10)” value is 0.325.
With “AGGCGGGCTTGGGTTCTAACCTGTTGCGGCC [AGGCGGGCTCC_LTGcore_CT_RTGcore_GG] (site AGGCGGGCTCC) (LTG core: CT, RTG core: GG)” the figure was 0.367; with “AGGCGGGCTTGGGTTCTAACCTGTTGCGGGC [AGGCGGGCTCC_LTGcore_CT_RTGcore_GC] (site AGGCGGGCTCC) (LTG core: CT, RTG core: GC)”, 0.249.
Under “AGGCGGGCTTGGGTTCTAACCTGTTGCGGGT [AGGCGGGCTCC_LTGcore_CT_RTGcore_AC] (site AGGCGGGCTCC) (LTG core: CT, RTG core: AC)” stands 0.945; under “AGGCGGGCTTGGGTTCTAACCTGTTGCGGTT [AGGCGGGCTCC_LTGcore_CT_RTGcore_AA] (site AGGCGGGCTCC) (LTG core: CT, RTG core: AA)”, 0.0746; under “AGGCGGGGCTGGGTTCTAACCTGTTGCGGAG [AGGCGGGCTCC_LTGcore_GC_RTGcore_CT] (site AGGCGGGCTCC) (LTG core: GC, RTG core: CT)”, 0.207.
As to “AGGCGGGGTTGGGTTCTAACCTGTTGCGGAC [AGGCGGGCTCC_LTGcore_GT_RTGcore_GT] (site AGGCGGGCTCC) (LTG core: GT, RTG core: GT)”, the “recombinant barcode read abundance (log10)” value amounted to 0.0704.
Under “AGGCGGGTCTGGGTTCTAACCTGTTGCGGGA [AGGCGGGCTCC_LTGcore_TC_RTGcore_TC] (site AGGCGGGCTCC) (LTG core: TC, RTG core: TC)” stands 0.156; under “AGGCGGTATTGGGTTCTAACCTGTTGCTTAG [AGGCGGTCTAA_LTGcore_AT_RTGcore_CT] (site AGGCGGTCTAA) (LTG core: AT, RTG core: CT)”, 0.127.
Take “AGGCGGTCATGGGTTCTAACCTGTTGCTTTG [AGGCGGTCTAA_LTGcore_CA_RTGcore_CA] (site AGGCGGTCTAA) (LTG core: CA, RTG core: CA)”: the “recombinant barcode read abundance (log10)” value worked out at 0.128.
As to “AGGCGGTCTTGGGTTCTAACCTGTTGCTTAC [AGGCGGTCTAA_LTGcore_CT_RTGcore_GT] (site AGGCGGTCTAA) (LTG core: CT, RTG core: GT)”, the “recombinant barcode read abundance (log10)” value turned out to be 1.26.
As to “AGGCGGTTTTGGGTTCTAACCTGTTGCTTAA [AGGCGGTCTAA_LTGcore_TT_RTGcore_TT] (site AGGCGGTCTAA) (LTG core: TT, RTG core: TT)”, the “recombinant barcode read abundance (log10)” value amounted to 0.0993.
Turning to “AGTCTTAATTGGGTTCTAACCTGTTGCCAAG [AGTCTTACTTG_LTGcore_AT_RTGcore_CT] (site AGTCTTACTTG) (LTG core: AT, RTG core: CT)”, the “recombinant barcode read abundance (log10)” value turned out to be 0.295.
Take “AGTCTTACATGGGTTCTAACCTGTTGCCAAG [AGTCTTACTTG_LTGcore_CA_RTGcore_CT] (site AGTCTTACTTG) (LTG core: CA, RTG core: CT)”: the “recombinant barcode read abundance (log10)” value turned out to be 0.033.
“AGTCTTACGTGGGTTCTAACCTGTTGCCAAG [AGTCTTACTTG_LTGcore_CG_RTGcore_CT] (site AGTCTTACTTG) (LTG core: CG, RTG core: CT)”: the “recombinant barcode read abundance (log10)” value was found to be 0.0383.
Regarding “AGTCTTACTTGGGTTCTAACCTGTTGCCAAA [AGTCTTACTTG_LTGcore_CT_RTGcore_TT] (site AGTCTTACTTG) (LTG core: CT, RTG core: TT)”, the “recombinant barcode read abundance (log10)” value is 0.0465.
For “AGTCTTACTTGGGTTCTAACCTGTTGCCACG [AGTCTTACTTG_LTGcore_CT_RTGcore_CG] (site AGTCTTACTTG) (LTG core: CT, RTG core: CG)”, the “recombinant barcode read abundance (log10)” value was 0.0125.
As to “AGTCTTACTTGGGTTCTAACCTGTTGCCAGC [AGTCTTACTTG_LTGcore_CT_RTGcore_GC] (site AGTCTTACTTG) (LTG core: CT, RTG core: GC)”, the “recombinant barcode read abundance (log10)” value came out at 0.13.
Turning to “AGTCTTACTTGGGTTCTAACCTGTTGCCAGG [AGTCTTACTTG_LTGcore_CT_RTGcore_CC] (site AGTCTTACTTG) (LTG core: CT, RTG core: CC)”, the “recombinant barcode read abundance (log10)” value was determined as 0.196.
With “AGTCTTATCTGGGTTCTAACCTGTTGCCAGA [AGTCTTACTTG_LTGcore_TC_RTGcore_TC] (site AGTCTTACTTG) (LTG core: TC, RTG core: TC)” the figure was 0.0509.
With “ATGCTTTACTGGGTTCTAACCTGTTGCCTAG [ATGCTTTCTAG_LTGcore_AC_RTGcore_CT] (site ATGCTTTCTAG) (LTG core: AC, RTG core: CT)” the figure was 0.0722; with “ATGCTTTCATGGGTTCTAACCTGTTGCCTTG [ATGCTTTCTAG_LTGcore_CA_RTGcore_CA] (site ATGCTTTCTAG) (LTG core: CA, RTG core: CA)”, 0.1.
For the sequence “ATGCTTTCGTGGGTTCTAACCTGTTGCCTCG [ATGCTTTCTAG_LTGcore_CG_RTGcore_CG] (site ATGCTTTCTAG) (LTG core: CG, RTG core: CG)”, the “recombinant barcode read abundance (log10)” value came to 0.295.
With “ATGCTTTCTTGGGTTCTAACCTGTTGCCTAT [ATGCTTTCTAG_LTGcore_CT_RTGcore_AT] (site ATGCTTTCTAG) (LTG core: CT, RTG core: AT)” the figure was 0.128.
Turning to “ATGCTTTCTTGGGTTCTAACCTGTTGCCTGC [ATGCTTTCTAG_LTGcore_CT_RTGcore_GC] (site ATGCTTTCTAG) (LTG core: CT, RTG core: GC)”, the “recombinant barcode read abundance (log10)” value was found to be 0.295.
“ATGCTTTCTTGGGTTCTAACCTGTTGCCTGT [ATGCTTTCTAG_LTGcore_CT_RTGcore_AC] (site ATGCTTTCTAG) (LTG core: CT, RTG core: AC)”: the “recombinant barcode read abundance (log10)” value came to 0.101.
Consider “ATGCTTTCTTGGGTTCTAACCTGTTGCCTTC [ATGCTTTCTAG_LTGcore_CT_RTGcore_GA] (site ATGCTTTCTAG) (LTG core: CT, RTG core: GA)”, for which the “recombinant barcode read abundance (log10)” value amounted to 0.0663.
Under “ATGCTTTGGTGGGTTCTAACCTGTTGCCTAG [ATGCTTTCTAG_LTGcore_GG_RTGcore_CT] (site ATGCTTTCTAG) (LTG core: GG, RTG core: CT)” stands 0.179; under “ATGCTTTGTTGGGTTCTAACCTGTTGCCTAC [ATGCTTTCTAG_LTGcore_GT_RTGcore_GT] (site ATGCTTTCTAG) (LTG core: GT, RTG core: GT)”, 0.302; under “ATGCTTTGTTGGGTTCTAACCTGTTGCCTAG [ATGCTTTCTAG_LTGcore_GT_RTGcore_CT] (site ATGCTTTCTAG) (LTG core: GT, RTG core: CT)”, 0.0408.
With “ATGTCCCACTGGGTTCTAACCTGTTGCTCAG [ATGTCCCCTGA_LTGcore_AC_RTGcore_CT] (site ATGTCCCCTGA) (LTG core: AC, RTG core: CT)” the figure was 0.172; with “ATGTCCCCATGGGTTCTAACCTGTTGCTCAG [ATGTCCCCTGA_LTGcore_CA_RTGcore_CT] (site ATGTCCCCTGA) (LTG core: CA, RTG core: CT)”, 0.527; with “ATGTCCCCTTGGGTTCTAACCTGTTGCTCTA [ATGTCCCCTGA_LTGcore_CT_RTGcore_TA] (site ATGTCCCCTGA) (LTG core: CT, RTG core: TA)”, 0.107.
On to “ATGTCCCCTTGGGTTCTAACCTGTTGCTCTC [ATGTCCCCTGA_LTGcore_CT_RTGcore_GA] (site ATGTCCCCTGA) (LTG core: CT, RTG core: GA)”, for which the “recombinant barcode read abundance (log10)” value was 0.0163.
In the case of “ATGTCCCGCTGGGTTCTAACCTGTTGCTCGC [ATGTCCCCTGA_LTGcore_GC_RTGcore_GC] (site ATGTCCCCTGA) (LTG core: GC, RTG core: GC)”, the “recombinant barcode read abundance (log10)” value was 0.103.
